From the NIST ThermoML archive (doi:10.1016/j.jct.2012.11.032)
Where “and” joins values, the source holds several entries; their conditions need not be identical. Identical values can stand only once. ± gives the expanded uncertainty stated by the source.

Experiments:
[1] = 101 kPa, Liquid, Vibrating tube method
[2] = xn = mol fraction of the nth substance listed; conditions: 101 kPa, Liquid, x2 = 0; for mass density: Vibrating tube method; for speed of sound: Sing-around technique in a fixed-path interferometer

mass density ([1]; 288 K) [kg/m3]	mass density ([1]; 293 K) [kg/m3]	mass density ([1]; 303 K) [kg/m3]	mass density ([2]; 283 K) [kg/m3]	mass density ([2]; 308 K) [kg/m3]	speed of sound ([2]; 313 K) [m/s]	mass density ([2]; 313 K) [kg/m3]	mass density ([2]; 288 K) [kg/m3]	mass density ([2]; 293 K) [kg/m3]	mass density ([2]; 303 K) [kg/m3]	SMILES	mass density ([1]; 283 K)	mass density ([1]; 308 K)	mass density ([1]; 313 K)
999.166 ± 0.1	998.283 ± 0.1	995.75 ± 0.1								O [water]	999.754 ± 0.1 kg/m3 and 999.719 ± 0.1 kg/m3 and 999.713 ± 0.1 kg/m3	994.099 ± 0.1 kg/m3 and 994.091 ± 0.1 kg/m3 and 994.144 ± 0.1 kg/m3	992.27 ± 0.11 kg/m3 and 992.33 ± 0.1 kg/m3
			999.719 ± 0.1	994.091 ± 0.1	1529 ± 1.2	992.27 ± 0.1				O [water] + CCCCCCCCCCCC[n+]1ccn(C)c1.[Cl-]			
			999.713 ± 0.1	994.099 ± 0.1	1529 ± 1.2					O [water] + CCCCCCCCCCn1cc[n+](C)c1.[Cl-]			
			999.754 ± 0.1	994.144 ± 0.1	1529 ± 1.2	992.33 ± 0.1	999.166 ± 0.1	998.283 ± 0.1	995.75 ± 0.1	O [water] + CCCCCCCC[n+]1ccn(C)c1.[Cl-]			
